According to paper PMC13210772, “Dual FLT3/MAPK14 Proteolysis-Targeting Chimera (PROTAC) Induces Potent Acute Myeloid Leukemia Cell Death” (Pharmaceuticals, 2026):

Legend:
Experiment in all cases: NanoBRET CELLinib128
Type in all cases: binding
PRKCE-PMA = target: T1, PRKCE-PMA (Homo sapiens, UniProt Q02156); conditions: 100% no effect, 0% complete tracer displacement, read-out: Tracer bound
T1 construct: Full-length kinase ORF (Promega, Madison, WI, USA) cloned in frame with a NanoLuc-vector was transfected into HEK293T cells; host or cells: HEK293T
Protocol: (§1) To get an impression about the binding strength of the PROTAC MA191 and the reference inhibitor MA68 to other kinases besides FLT3-ITD the binding on a kinase panel of further 128 representative protein kinases at 1 μM concentration was tested using the NanoBRET^TM cellular target engagement assay (CELLinib128 assay, CELLinib GmbH, Frankfurt, Germany). […] In none of the 128 kinases MA191 was able to displace the tracer (inhibitor) used by more than 50%, Table S1, Supplementary Information).
(§2) The CELLinib128 assay was performed by CELLinib GmbH, Frankfurt (Germany) as described previously. In brief: Full-length kinase ORF (Promega, Madison, WI, USA) cloned in frame with a NanoLuc-vector was transfected into HEK293T cells in Opti-MEM without phenol red (Life Technologies, Carlsbad, CA, USA) at a density of 2 × 10^5 cells/mL using FuGENE HD (Promega, E2312) and proteins were allowed to express for 20 h. For CDKs, where indicated below, an excess of an activator without an NLuc-fusion was cotransfected. […] The system was allowed to equilibrate at 37 °C for 2 h and 5% CO2 prior to BRET measurements. For PKCs, a chemical activator PMA was added in a final concentration of 1 µM was added together with test compounds and tracers (Promega, V1171). To measure BRET, NanoBRET^TM NanoGlo substrate + extracellular NanoLuc inhibitor (Promega, N2160) were added as per the manufacturer’s protocol, and filtered luminescence was measured (450 nm BP filter (donor) and 610 nm LP filter (acceptor)). For the 1-shot test compounds, data were normalized to the tracer control and the background control or control compound plateau and an average and SD were calculated. […] For the control compounds competitive displacement data were normalized to the tracer Ctrl and the background Ctrl and then plotted and fitted using GraphPad Prism 10 software using a normalized 3-parameter curve fit with the following equation: Y = 100/(1 + 10^X−LogIC50).

FGFR2 = target: T2, FGFR2 (Homo sapiens, UniProt P21802); conditions: 100% no effect, 0% complete tracer displacement, read-out: Tracer bound
T2 construct: Full-length kinase ORF (Promega, Madison, WI, USA) cloned in frame with a NanoLuc-vector was transfected into HEK293T cells; host or cells: HEK293T
Protocol: as §1, §2

TRKA = target: T3, TRKA (Homo sapiens, UniProt P04629); conditions: 100% no effect, 0% complete tracer displacement, read-out: Tracer bound
T3 construct: Full-length kinase ORF (Promega, Madison, WI, USA) cloned in frame with a NanoLuc-vector; host or cells: HEK293T
Protocol: as §1, §2

RPS6KA6 = target: T4, RPS6KA6 (Homo sapiens, UniProt Q9UK32); conditions: 1 µM; 100% no effect, 0% complete tracer displacement
T4 construct: Full-length kinase ORF (Promega, Madison, WI, USA) cloned in frame with a NanoLuc-vector was transfected into HEK293T cells; host or cells: HEK293T
Protocol: as §1, §2

TNK2 = target: T5, TNK2 (Homo sapiens, UniProt Q07912); conditions: 100% no effect, 0% complete tracer displacement, read-out: Tracer bound
T5 construct: Full-length kinase ORF (Promega, Madison, WI, USA) cloned in frame with a NanoLuc-vector; host or cells: HEK293T
Protocol: as §1, §2

CDK18-CCNY = target: T6, CDK18-CCNY (Homo sapiens, UniProt Q07002); conditions: 100% no effect, 0% complete tracer displacement, read-out: Tracer bound
T6 construct: Full-length kinase ORF (Promega, Madison, WI, USA) cloned in frame with a NanoLuc-vector was transfected into HEK293T cells; host or cells: HEK293T
Protocol: as §1, §2

PTK2 = target: T7, PTK2 (Homo sapiens, UniProt Q05397); conditions: 100% no effect, 0% complete tracer displacement, read-out: Tracer bound
T7 construct: Full-length kinase ORF (Promega, Madison, WI, USA) cloned in frame with a NanoLuc-vector was transfected into HEK293T cells; host or cells: HEK293T
Protocol: as §1, §2

TBK1 = target: T8, TBK1 (Homo sapiens, UniProt Q9UHD2); conditions: 100% no effect, 0% complete tracer displacement, read-out: Tracer bound
T8 construct: Full-length kinase ORF (Promega, Madison, WI, USA) cloned in frame with a NanoLuc-vector was transfected into HEK293T cells; host or cells: HEK293T
Protocol: as §1, §2

CAMK2A = target: T9, CAMK2A (Homo sapiens, UniProt Q9UQM7); conditions: 100% no effect, 0% complete tracer displacement, read-out: Tracer bound
T9 construct: Full-length kinase ORF (Promega, Madison, WI, USA) cloned in frame with a NanoLuc-vector was transfected into HEK293T cells; host or cells: HEK293T
T9 sequence (Q9UQM7 whole entry): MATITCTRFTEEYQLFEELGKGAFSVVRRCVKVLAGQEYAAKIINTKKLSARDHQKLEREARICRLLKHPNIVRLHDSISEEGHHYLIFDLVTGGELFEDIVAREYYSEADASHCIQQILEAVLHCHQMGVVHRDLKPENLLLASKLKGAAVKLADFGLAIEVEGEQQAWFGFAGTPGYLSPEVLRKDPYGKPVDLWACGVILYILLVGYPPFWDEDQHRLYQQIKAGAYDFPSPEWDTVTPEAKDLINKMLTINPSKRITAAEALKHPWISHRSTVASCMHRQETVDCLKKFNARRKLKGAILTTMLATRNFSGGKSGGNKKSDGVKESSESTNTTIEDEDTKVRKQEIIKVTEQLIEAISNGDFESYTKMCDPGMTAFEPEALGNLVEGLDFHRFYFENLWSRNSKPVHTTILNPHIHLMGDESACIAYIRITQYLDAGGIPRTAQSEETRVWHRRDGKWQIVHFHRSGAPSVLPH
Protocol: as §1, §2

STK33 = target: T10, STK33 (Homo sapiens, UniProt Q9BYT3); conditions: 100% no effect, 0% complete tracer displacement, read-out: Tracer bound
T10 construct: Full-length kinase ORF (Promega, Madison, WI, USA) cloned in frame with a NanoLuc-vector was transfected into HEK293T cells; host or cells: HEK293T
Protocol: as §1, §2

BTK = target: T11, BTK (Homo sapiens, UniProt Q06187); conditions: 1 µM; 100% no effect, 0% complete tracer displacement
T11 construct: Full-length kinase ORF (Promega, Madison, WI, USA) cloned in frame with a NanoLuc-vector was transfected into HEK293T cells; host or cells: HEK293T
Protocol: as §1, §2

MAPK9 = target: T12, MAPK9 (Homo sapiens, UniProt P45984); conditions: 1 µM; 100% no effect, 0% complete tracer displacement
T12 construct: Full-length kinase ORF (Promega, Madison, WI, USA) cloned in frame with a NanoLuc-vector was transfected into HEK293T cells; host or cells: HEK293T
T12 sequence (P45984 whole entry): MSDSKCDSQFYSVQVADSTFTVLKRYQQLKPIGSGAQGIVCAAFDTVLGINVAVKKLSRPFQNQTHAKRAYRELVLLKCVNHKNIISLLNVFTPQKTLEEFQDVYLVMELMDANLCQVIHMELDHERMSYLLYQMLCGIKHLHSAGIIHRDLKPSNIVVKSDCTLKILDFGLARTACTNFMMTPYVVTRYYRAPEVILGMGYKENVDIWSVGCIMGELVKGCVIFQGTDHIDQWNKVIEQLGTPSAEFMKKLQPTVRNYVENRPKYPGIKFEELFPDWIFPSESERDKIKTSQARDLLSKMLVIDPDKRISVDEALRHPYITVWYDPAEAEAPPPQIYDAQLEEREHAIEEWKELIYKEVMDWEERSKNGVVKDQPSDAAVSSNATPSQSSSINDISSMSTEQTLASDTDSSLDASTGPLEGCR
Protocol: as §1, §2

CHEK2 = target: T13, CHEK2 (Homo sapiens, UniProt O96017); conditions: 100% no effect, 0% complete tracer displacement, read-out: Tracer bound
T13 construct: Full-length kinase ORF (Promega, Madison, WI, USA) cloned in frame with a NanoLuc-vector was transfected into HEK293T cells; host or cells: HEK293T
Protocol: as §1, §2

STK4 = target: T14, STK4 (Homo sapiens, UniProt Q13043); conditions: 1 µM; 100% no effect, 0% complete tracer displacement
T14 construct: Full-length kinase ORF (Promega, Madison, WI, USA) cloned in frame with a NanoLuc-vector was transfected into HEK293T cells; host or cells: HEK293T
Protocol: as §1, §2

LATS1 = target: T15, LATS1 (Homo sapiens, UniProt O95835); conditions: 100% no effect, 0% complete tracer displacement, read-out: Tracer bound
T15 construct: Full-length kinase ORF (Promega, Madison, WI, USA) cloned in frame with a NanoLuc-vector was transfected into HEK293T cells; host or cells: HEK293T
T15 sequence (O95835 whole entry): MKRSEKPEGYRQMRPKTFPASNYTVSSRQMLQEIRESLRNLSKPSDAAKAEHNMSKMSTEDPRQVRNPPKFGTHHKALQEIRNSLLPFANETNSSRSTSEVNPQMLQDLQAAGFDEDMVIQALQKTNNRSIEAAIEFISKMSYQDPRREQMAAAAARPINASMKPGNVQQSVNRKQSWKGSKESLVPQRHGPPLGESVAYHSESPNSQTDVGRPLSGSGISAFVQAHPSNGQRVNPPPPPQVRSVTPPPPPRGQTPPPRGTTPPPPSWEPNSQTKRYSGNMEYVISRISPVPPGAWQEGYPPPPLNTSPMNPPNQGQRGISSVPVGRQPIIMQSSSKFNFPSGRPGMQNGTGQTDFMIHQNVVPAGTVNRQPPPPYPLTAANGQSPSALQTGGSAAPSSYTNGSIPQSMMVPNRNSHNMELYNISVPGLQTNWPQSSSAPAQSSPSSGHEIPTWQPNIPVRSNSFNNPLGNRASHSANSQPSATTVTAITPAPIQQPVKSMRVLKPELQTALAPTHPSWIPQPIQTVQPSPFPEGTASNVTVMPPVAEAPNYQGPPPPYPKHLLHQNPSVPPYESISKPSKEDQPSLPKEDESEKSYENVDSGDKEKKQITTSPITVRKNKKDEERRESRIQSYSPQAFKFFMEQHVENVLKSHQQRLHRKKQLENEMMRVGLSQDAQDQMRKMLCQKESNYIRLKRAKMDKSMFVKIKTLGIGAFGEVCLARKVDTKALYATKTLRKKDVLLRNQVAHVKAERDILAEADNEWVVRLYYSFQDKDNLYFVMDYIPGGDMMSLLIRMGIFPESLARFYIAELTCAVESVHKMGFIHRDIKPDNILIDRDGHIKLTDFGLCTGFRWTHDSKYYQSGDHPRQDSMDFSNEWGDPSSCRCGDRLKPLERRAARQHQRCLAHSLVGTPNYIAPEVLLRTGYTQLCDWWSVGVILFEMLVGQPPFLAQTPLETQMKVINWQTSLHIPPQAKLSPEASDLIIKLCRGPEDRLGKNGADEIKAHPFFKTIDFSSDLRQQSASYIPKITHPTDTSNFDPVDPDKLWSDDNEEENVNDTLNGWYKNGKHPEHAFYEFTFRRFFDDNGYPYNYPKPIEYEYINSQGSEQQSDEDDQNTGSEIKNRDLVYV
Protocol: as §1, §2

CDK4-CCND3 = target: T16, CDK4-CCND3 (Homo sapiens, UniProt P11802); conditions: 100% no effect, 0% complete tracer displacement, read-out: Tracer bound
T16 construct: Full-length kinase ORF (Promega, Madison, WI, USA) cloned in frame with a NanoLuc-vector was transfected into HEK293T cells; host or cells: HEK293T
Protocol: as §1, §2

NUAK1 = target: T17, NUAK1 (Homo sapiens, UniProt O60285); conditions: 1 µM; 100% no effect, 0% complete tracer displacement
T17 construct: Full-length kinase ORF (Promega, Madison, WI, USA) cloned in frame with a NanoLuc-vector was transfected into HEK293T cells; host or cells: HEK293T
T17 sequence (O60285 whole entry): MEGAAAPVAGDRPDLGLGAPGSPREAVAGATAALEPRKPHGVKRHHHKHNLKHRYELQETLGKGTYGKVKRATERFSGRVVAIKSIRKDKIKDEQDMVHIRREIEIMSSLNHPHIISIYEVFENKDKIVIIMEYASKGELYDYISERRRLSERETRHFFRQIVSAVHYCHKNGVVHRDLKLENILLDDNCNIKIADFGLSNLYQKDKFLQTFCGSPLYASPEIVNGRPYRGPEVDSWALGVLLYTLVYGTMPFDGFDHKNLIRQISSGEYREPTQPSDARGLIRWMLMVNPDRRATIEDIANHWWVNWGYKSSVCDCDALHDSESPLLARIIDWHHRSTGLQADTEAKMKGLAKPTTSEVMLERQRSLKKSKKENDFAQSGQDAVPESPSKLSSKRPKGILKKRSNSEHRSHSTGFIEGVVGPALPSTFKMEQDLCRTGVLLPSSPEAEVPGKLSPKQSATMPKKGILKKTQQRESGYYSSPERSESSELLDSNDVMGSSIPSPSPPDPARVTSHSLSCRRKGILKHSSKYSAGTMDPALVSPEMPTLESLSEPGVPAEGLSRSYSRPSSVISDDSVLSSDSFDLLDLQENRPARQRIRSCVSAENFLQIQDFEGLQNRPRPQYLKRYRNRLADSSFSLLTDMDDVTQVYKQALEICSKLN
Protocol: as §1, §2

TNNI3K = target: T18, TNNI3K (Homo sapiens, UniProt Q59H18); conditions: 100% no effect, 0% complete tracer displacement, read-out: Tracer bound
T18 construct: Full-length kinase ORF (Promega, Madison, WI, USA) cloned in frame with a NanoLuc-vector; host or cells: HEK293T
Protocol: as §1, §2

RPS6KA1 = target: T19, RPS6KA1 (Homo sapiens, UniProt Q15418); conditions: 100% no effect, 0% complete tracer displacement, read-out: Tracer bound
T19 construct: Full-length kinase ORF (Promega, Madison, WI, USA) cloned in frame with a NanoLuc-vector was transfected into HEK293T cells; host or cells: HEK293T
Protocol: as §1, §2

CDK20-CCNH = target: T20, CDK20-CCNH (Homo sapiens, UniProt Q8IZL9); conditions: 100% no effect, 0% complete tracer displacement, read-out: Tracer bound
T20 construct: Full-length kinase ORF (Promega, Madison, WI, USA) cloned in frame with a NanoLuc-vector was transfected into HEK293T cells; host or cells: HEK293T
Protocol: as §1, §2

RET = target: T21, RET (Homo sapiens, UniProt P07949); conditions: 100% no effect, 0% complete tracer displacement, read-out: Tracer bound
T21 construct: Full-length kinase ORF (Promega, Madison, WI, USA) cloned in frame with a NanoLuc-vector was transfected into HEK293T cells; host or cells: HEK293T
Protocol: as §1, §2

RPS6KA3 = target: T22, RPS6KA3 (Homo sapiens, UniProt P51812); conditions: 100% no effect, 0% complete tracer displacement, read-out: Tracer bound
T22 construct: Full-length kinase ORF (Promega, Madison, WI, USA) cloned in frame with a NanoLuc-vector was transfected into HEK293T cells; host or cells: HEK293T
Protocol: as §1, §2

TYK2 = target: T23, TYK2 (Homo sapiens, UniProt P29597); conditions: 1 µM; 100% no effect, 0% complete tracer displacement
T23 construct: Full-length kinase ORF (Promega, Madison, WI, USA) cloned in frame with a NanoLuc-vector; host or cells: HEK293T
T23 sequence (P29597 whole entry): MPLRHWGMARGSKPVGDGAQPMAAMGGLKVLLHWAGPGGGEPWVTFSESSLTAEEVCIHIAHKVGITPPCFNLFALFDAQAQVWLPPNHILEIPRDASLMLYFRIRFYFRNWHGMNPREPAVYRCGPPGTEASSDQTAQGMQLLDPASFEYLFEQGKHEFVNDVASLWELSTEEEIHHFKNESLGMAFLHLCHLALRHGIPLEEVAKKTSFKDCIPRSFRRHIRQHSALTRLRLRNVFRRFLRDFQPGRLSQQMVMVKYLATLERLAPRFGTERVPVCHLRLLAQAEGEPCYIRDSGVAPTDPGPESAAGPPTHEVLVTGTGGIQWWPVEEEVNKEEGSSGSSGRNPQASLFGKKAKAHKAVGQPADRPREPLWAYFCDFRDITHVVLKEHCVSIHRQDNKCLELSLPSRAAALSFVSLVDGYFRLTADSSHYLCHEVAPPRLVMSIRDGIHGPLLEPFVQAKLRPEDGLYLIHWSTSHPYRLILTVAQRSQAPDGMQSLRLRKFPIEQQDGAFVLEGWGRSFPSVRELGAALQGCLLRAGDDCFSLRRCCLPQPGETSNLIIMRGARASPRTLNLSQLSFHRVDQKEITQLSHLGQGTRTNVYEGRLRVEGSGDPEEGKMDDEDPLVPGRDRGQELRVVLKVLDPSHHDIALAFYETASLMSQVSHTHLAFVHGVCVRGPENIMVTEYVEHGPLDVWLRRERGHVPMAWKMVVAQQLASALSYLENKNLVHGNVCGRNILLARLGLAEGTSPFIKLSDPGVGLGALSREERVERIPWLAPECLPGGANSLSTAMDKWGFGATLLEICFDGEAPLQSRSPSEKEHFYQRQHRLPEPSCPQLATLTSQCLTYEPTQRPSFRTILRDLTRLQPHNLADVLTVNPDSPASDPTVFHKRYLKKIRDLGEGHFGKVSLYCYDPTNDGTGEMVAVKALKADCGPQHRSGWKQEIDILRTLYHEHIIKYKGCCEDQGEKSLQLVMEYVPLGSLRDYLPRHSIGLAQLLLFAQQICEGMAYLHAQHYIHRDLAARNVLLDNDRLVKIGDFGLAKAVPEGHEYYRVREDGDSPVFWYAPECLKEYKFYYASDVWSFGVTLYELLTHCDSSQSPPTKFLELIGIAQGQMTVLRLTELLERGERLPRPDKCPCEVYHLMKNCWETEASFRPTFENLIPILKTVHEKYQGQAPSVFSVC
Protocol: as §1, §2

MYLK3 = target: T24, MYLK3 (Homo sapiens, UniProt Q32MK0); conditions: 100% no effect, 0% complete tracer displacement, read-out: Tracer bound
T24 construct: Full-length kinase ORF (Promega, Madison, WI, USA) cloned in frame with a NanoLuc-vector was transfected into HEK293T cells; host or cells: HEK293T
Protocol: as §1, §2

WEE2 = target: T25, WEE2 (Homo sapiens, UniProt P0C1S8); conditions: 100% no effect, 0% complete tracer displacement, read-out: Tracer bound
T25 construct: Full-length kinase ORF (Promega, Madison, WI, USA) cloned in frame with a NanoLuc-vector; host or cells: HEK293T
Protocol: as §1, §2

AURKA = target: T26, AURKA (Homo sapiens, UniProt O14965); conditions: 100% no effect, 0% complete tracer displacement, read-out: Tracer bound
T26 construct: Full-length kinase ORF (Promega, Madison, WI, USA) cloned in frame with a NanoLuc-vector was transfected into HEK293T cells; host or cells: HEK293T
T26 sequence (O14965 whole entry): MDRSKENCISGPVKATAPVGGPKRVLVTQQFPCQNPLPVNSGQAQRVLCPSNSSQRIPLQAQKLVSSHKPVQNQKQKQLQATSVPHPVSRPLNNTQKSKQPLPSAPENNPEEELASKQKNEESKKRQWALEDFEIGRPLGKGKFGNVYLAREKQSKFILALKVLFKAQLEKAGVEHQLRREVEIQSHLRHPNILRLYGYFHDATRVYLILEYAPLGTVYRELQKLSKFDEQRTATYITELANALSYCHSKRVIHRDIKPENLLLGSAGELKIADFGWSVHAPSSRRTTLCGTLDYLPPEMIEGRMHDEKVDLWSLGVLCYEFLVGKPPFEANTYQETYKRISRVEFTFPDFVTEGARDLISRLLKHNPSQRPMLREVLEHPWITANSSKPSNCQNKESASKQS
Protocol: as §1, §2

PRKAA1 = target: T27, PRKAA1 (Homo sapiens, UniProt Q13131); conditions: 100% no effect, 0% complete tracer displacement, read-out: Tracer bound
T27 construct: Full-length kinase ORF (Promega, Madison, WI, USA) cloned in frame with a NanoLuc-vector was transfected into HEK293T cells; host or cells: HEK293T
Protocol: as §1, §2

RPS6KA2 = target: T28, RPS6KA2 (Homo sapiens, UniProt Q15349); conditions: 100% no effect, 0% complete tracer displacement, read-out: Tracer bound
T28 construct: Full-length kinase ORF (Promega, Madison, WI, USA) cloned in frame with a NanoLuc-vector was transfected into HEK293T cells; host or cells: HEK293T
Protocol: as §1, §2

MAPK6 = target: T29, MAPK6 (Homo sapiens, UniProt Q16659); conditions: 100% no effect, 0% complete tracer displacement, read-out: Tracer bound
T29 construct: Full-length kinase ORF (Promega, Madison, WI, USA) cloned in frame with a NanoLuc-vector was transfected into HEK293T cells; host or cells: HEK293T
T29 sequence (Q16659 whole entry): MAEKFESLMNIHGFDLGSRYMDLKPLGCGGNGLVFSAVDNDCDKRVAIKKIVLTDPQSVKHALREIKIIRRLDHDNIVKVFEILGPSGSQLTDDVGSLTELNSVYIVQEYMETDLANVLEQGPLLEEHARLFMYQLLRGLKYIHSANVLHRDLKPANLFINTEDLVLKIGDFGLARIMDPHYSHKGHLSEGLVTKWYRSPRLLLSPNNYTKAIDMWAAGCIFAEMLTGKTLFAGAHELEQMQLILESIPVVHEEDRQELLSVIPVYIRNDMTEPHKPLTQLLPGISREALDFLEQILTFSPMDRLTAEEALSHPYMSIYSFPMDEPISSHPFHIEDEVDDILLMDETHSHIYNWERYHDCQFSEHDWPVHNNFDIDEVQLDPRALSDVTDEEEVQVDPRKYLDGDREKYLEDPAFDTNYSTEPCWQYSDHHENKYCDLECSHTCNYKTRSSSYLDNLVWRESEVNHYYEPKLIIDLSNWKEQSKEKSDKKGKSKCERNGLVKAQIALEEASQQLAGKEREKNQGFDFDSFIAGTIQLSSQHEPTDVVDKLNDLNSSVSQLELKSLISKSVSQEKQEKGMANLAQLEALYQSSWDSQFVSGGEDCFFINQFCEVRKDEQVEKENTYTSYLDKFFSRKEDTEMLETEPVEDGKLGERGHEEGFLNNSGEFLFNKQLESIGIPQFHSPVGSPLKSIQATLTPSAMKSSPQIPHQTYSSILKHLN
Protocol: as §1, §2

STK38L = target: T30, STK38L (Homo sapiens, UniProt Q9Y2H1); conditions: 100% no effect, 0% complete tracer displacement, read-out: Tracer bound
T30 construct: Full-length kinase ORF (Promega, Madison, WI, USA) cloned in frame with a NanoLuc-vector was transfected into HEK293T cells; host or cells: HEK293T
Protocol: as §1, §2

CNC(=O)c1cc(Oc2ccc(NC(=O)Nc3cc(C(C)(C)C)on3)cc2)ccn1 [MA68, reference compound]
remaining activity at 1 µM (PRKCE-PMA): 76.2% | remaining activity at 1 µM (FGFR2): 40.7% | remaining activity at 1 µM (TRKA): 28.6% | Tracer bound (RPS6KA6): 113.5% | remaining activity at 1 µM (TNK2): 116% | remaining activity at 1 µM (CDK18-CCNY): 28.6% | remaining activity at 1 µM (PTK2): 118% | remaining activity at 1 µM (TBK1): 107% | remaining activity at 1 µM (CAMK2A): 102% | remaining activity at 1 µM (STK33): 94.8% | Tracer bound (BTK): 120.0% | Tracer bound (MAPK9): 94.9% | remaining activity at 1 µM (CHEK2): 119% | Tracer bound (STK4): 98.8% | remaining activity at 1 µM (LATS1): 106% | remaining activity at 1 µM (CDK4-CCND3): 29.7% | Tracer bound (NUAK1): 120.0% | remaining activity at 1 µM (TNNI3K): 15.1% | remaining activity at 1 µM (RPS6KA1): 108% | remaining activity at 1 µM (CDK20-CCNH): 93.3% | remaining activity at 1 µM (RET): 3.8% | remaining activity at 1 µM (RPS6KA3): 118% | Tracer bound (TYK2): 103.2% | remaining activity at 1 µM (MYLK3): 119% | remaining activity at 1 µM (WEE2): 102% | remaining activity at 1 µM (AURKA): 120% | remaining activity at 1 µM (PRKAA1): 114% | remaining activity at 1 µM (RPS6KA2): 116% | remaining activity at 1 µM (MAPK6): 113% | remaining activity at 1 µM (STK38L): 90%
